test system: PC-3 cell proliferation; assay: Cell proliferation assay (WST-1), PC-3; type: cell-based; conditions: Homo sapiens; PC-3 cells, WST-1 readout; read-out: inhibitory activity against PC-3 cell proliferation (IC50 range)
Description: A panel of cancer cell lines was obtained from the DCTP Tumor Repository, National Cancer Institute (Frederick, Md.) or ATCC (Rockville, Md.). Cell cultures were maintained in Hyclone RPMI 1640 medium (Logan, Utah) supplemented with 10% fetal bovine serum and 20 mM HEPES buffer, final pH 7.2, at 37° C. with a 5% CO2 atmosphere. Cultures were maintained at sub-confluent densities. Human umbilical vein endothelial cells (HUVEC) were purchased from Clonetics, a division of Cambrex (Walkersville, Md.). Cultures were established from cryopreserved stocks using Clonetics EGM-2 medium supplemented with 20 mM HEPES, final pH 7.2, at 37° C. with a 5% CO2 atmosphere.
For proliferation assays, cells were seeded with the appropriate medium into 96 well plates at 1,000-2,500 cells per well, depending on the cell line, and were incubated overnight. The following day, test compound, DMSO solution (negative control), or Actinomycin D (positive control) was added to the appropriate wells as 10× concentrated stocks prepared in phosphate buffered saline. The cell plates were then incubated for an additional 2-5 days, depending on the cell line, to allow proliferation to occur. To measure cell density, 50 μL of WST-1 solution (Roche Applied Science, Ind.) diluted 1:5 in phosphate buffered saline was added to each well, and the cells incubated for an additional 1-5 hrs., again depending on the cell line. Optical density was determined for each well at […] using a Tecan GeniosPro plate reader (RTP, NC). The percentage of cell growth was determined by comparing the cell growth in the presence of test compounds to the cells treated with DMSO vehicle (control, 100% growth) and cells treated with Actinomycin D (10 μM, 0% growth). […]

| SMILES | IC50 |
| --- | --- |
| CCCCOc1cc(C(N)=O)ccc1-n1cc(C)c2c1CC(C)(C)CC2=O [Compound 53, 3-butoxy-4-(3,6,6-trimethyl-4-oxo-4,5,6,7-tetrahydroindol-1-yl)benzamide] | 5 to 50 µM |
| Cc1cn(-c2ccc(C(N)=O)c(NC(N)=O)c2)c2c1C(=O)CC(C)(C)C2 [Compound 55, 1-(2-carbamoyl-5-(3,6,6-trimethyl-4-oxo-4,5,6,7-tetrahydroindol-1-yl)phenyl)urea] | 0.5 to 5 µM |
| Cc1cc2c(n1-c1ccc(C(N)=O)cc1-c1ccsc1)CC(C)(C)CC2=O [Compound 70, 3-(3-thienyl)-4-(2,6,6-trimethyl-4-oxo-4,5,6,7-tetrahydro-1H-indol-1-yl)benzamide] | 5 to 50 µM |

test system: HSP-90 (heat shock protein 90); assay: Determination of affinity for HSP-90 (elution from purine affinity column, SDS-PAGE densitometry); type: binding; design: key: +++: very high; ++: high; +: moderate; conditions: elution of HSP-90 from purine affinity column with 20, 100 and 500 μM test compound
Description: Affinity of test compounds for HSP-90 was determined as follows: Protein mixtures obtained from a variety of organ tissues (for example: spleen, liver and lung) were reversibly bound to a purine affinity column to capture purine-binding proteins, especially HSP-90. The purine affinity column was washed several times, and then eluted with 20 μM, 100 μM, and 500 μM of test compound. Compounds of Formula I elute HP-90 in a dose-dependent manner vs. a control elution using dimethylsulfoxide. The elution profile of Formula I compounds was determined by 1-dimensional SDS polyacrylamide gel electrophoresis. Gels were stained with a fluorescent stain such as sypro ruby (a highly sensitive fluorescent protein stain that can readily detect less than 1 fmol of total protein, i.e., less than 0.04 ng for a 40 kDa protein) or silver nitrate. The gels were imaged using a standard flat bed gel imager and the amount of protein estimated by densitometry. The percent of HSP-90 protein eluted from the column at each concentration was determined and IC50 values were calculated from these estimates. The identity of a band containing HSP-90 was determined by protein sequencing using mass spectroscopy.
Compounds of the invention are inhibitors of HSP-90 (heat shock protein 90). Several exemplary compounds useful in the methods of the invention are listed below.

| SMILES | relative binding affinity to HSP-90 |
| --- | --- |
| CC1(C)CC(=O)c2c(C(F)F)nn(-c3ccc(C(N)=O)c(NC4CCSCC4)c3)c2C1 [Compound 32, 4-(3-Difluoromethyl-6,6-dimethyl-4-oxo-4,5,6,7-tetrahydro-indazol-1-yl)-2-(tetrahydro-thiopyran-4-ylamino)-benzamide] | +++ |
| Cc1nn(-c2ccc(C(N)=O)c(NCCCN3CCCC3=O)c2)c2c1C(=O)CC(C)(C)C2 [Compound 34, 2-[3-(2-Oxo-pyrrolidin-1-yl)-propylamino]-4-(3,6,6-trimethyl-4-oxo-4,5,6,7-tetrahydro-indazol-1-yl)-benzamide] | ++ |
| C=CCNc1cc(-n2cc(C)c3c2CC(C)(C)CC3=O)ccc1C(N)=O [Compound 50, 2-(allylamino)-4-(3,6,6-trimethyl-4-oxo-4,5,6,7-tetrahydroindol-1-yl)benzamide] | +++ |
| CCCCOc1cc(C(N)=O)ccc1-n1cc(C)c2c1CC(C)(C)CC2=O [Compound 53, 3-butoxy-4-(3,6,6-trimethyl-4-oxo-4,5,6,7-tetrahydroindol-1-yl)benzamide] | ++ |
| Cc1cn(-c2ccc(C(N)=O)c(NC3CCc4ccccc43)c2)c2c1C(=O)CC(C)(C)C2 (stereo not shown) [Compound 54, 2-(2,3-dihydro-1H-inden-1-ylamino)-4-(3,6,6-trimethyl-4-oxo-4,5,6,7-tetrahydroindol-1-yl)benzamide] | + |
| Cc1cn(-c2ccc(C(N)=O)c(NC(N)=O)c2)c2c1C(=O)CC(C)(C)C2 [Compound 55, 1-(2-carbamoyl-5-(3,6,6-trimethyl-4-oxo-4,5,6,7-tetrahydroindol-1-yl)phenyl)urea] | ++ |
| Cc1cc2c(n1-c1ccc(C(N)=O)cc1-c1ccsc1)CC(C)(C)CC2=O [Compound 70, 3-(3-thienyl)-4-(2,6,6-trimethyl-4-oxo-4,5,6,7-tetrahydro-1H-indol-1-yl)benzamide] | + |
| Cc1cc2c(n1-c1ccc(C(N)=O)c(Nc3ccc(Cl)cc3)c1)CC(C)(C)CC2=O [Compound 73, 2-[(4-chlorophenyl)amino]-4-(2,6,6-trimethyl-4-oxo-4,5,6,7-tetrahydro-1H-indol-1-yl)benzamide] | + |
| Cc1cc2c(n1-c1cnc(C(N)=O)c(Nc3ccccc3)c1)CC(C)(C)CC2=O [Compound 75, 3-anilino-5-(2,6,6-trimethyl-4-oxo-4,5,6,7-tetrahydro-1H-indol-1-yl)pyridine-2-carboxamide] | +++ |
| Cc1cc2c(n1-c1ccc(C(N)=O)c(N[C@H](C(=O)O)C(C)C)c1)CC(C)(C)CC2=O [Compound 78, N-[2-(aminocarbonyl)-5-(2,6,6-trimethyl-4-oxo-4,5,6,7-tetrahydro-1H-indol-1-yl)phenyl]-L-valine] | + |
| Cc1cc2c(n1-c1ccc(C(N)=O)c(N3CCOCC3)c1)CC(C)(C)CC2=O [Compound 79, 2-morpholin-4-yl-4-(2,6,6-trimethyl-4-oxo-4,5,6,7-tetrahydro-1H-indol-1-yl)benzamide] | + |
| Cc1cc2c(n1-c1ccc(C(N)=O)c(-n3ccnc3)c1)CC(C)(C)CC2=O [Compound 80, 2-(1H-imidazol-1-yl)-4-(2,6,6-trimethyl-4-oxo-4,5,6,7-tetrahydro-1H-indol-1-yl)benzamide] | + |
| CCn1nccc1Nc1cc(-n2c(C)cc3c2CC(C)(C)CC3=O)ccc1C(N)=O [Compound 83, 2-[(1-ethyl-1H-pyrazol-5-yl)amino]-4-(2,6,6-trimethyl-4-oxo-4,5,6,7-tetrahydro-1H-indol-1-yl)benzamide] | +++ |
| COc1cc(Nc2cc(-n3ccc4c3CCCC4=O)ccc2C(N)=O)cc(OC)c1OC [Compound 86, 4-(4-oxo-4,5,6,7-tetrahydro-1H-indol-1-yl)-2-[(3,4,5-trimethoxyphenyl)amino]benzamide] | ++ |
| COc1ccc(Nc2cc(-n3c(C)cc4c3CC(C)(C)CC4=O)ccc2C(N)=O)cn1 [Compound 87, 2-[(6-methoxypyridin-3-yl)amino]-4-(2,6,6-trimethyl-4-oxo-4,5,6,7-tetrahydro-1H-indol-1-yl)benzamide] | ++ |
| C=CCNc1cc(-n2ccc3c2CCCC3=O)ccc1C(N)=O [Compound 88, 2-(allylamino)-4-(4-oxo-4,5,6,7-tetrahydro-1H-indol-1-yl)benzamide] | ++ |
| C=CCNc1cc(-n2c(C)c(C)c3c2CCCC3=O)ccc1C(N)=O [Compound 91, 2-(allylamino)-4-(2,3-dimethyl-4-oxo-4,5,6,7-tetrahydro-1H-indol-1-yl)benzamide] | ++ |
| COCCNc1cc(-n2c(C)c(C)c3c2CCCC3=O)ccc1C(N)=O [Compound 92, 4-(2,3-dimethyl-4-oxo-4,5,6,7-tetrahydro-1H-indol-1-yl)-2-[(2-methoxyethyl)amino]benzamide] | ++ |
| COCCNc1cc(-n2nc(C)c3c2CC(C)(C)CC3=O)ccc1C(N)=O [Compound 95, 2-[(2-methoxyethyl)amino]-4-(3,6,6-trimethyl-4-oxo-4,5,6,7-tetrahydro-1H-indazol-1-yl)benzamide] | +++ |
| Cc1cn(-c2ccc(C(N)=O)c(NCCN3CCOCC3)c2)c2c1C(=O)CC(C)(C)C2 [Compound 96, 2-[(2-morpholin-4-ylethyl)amino]-4-(3,6,6-trimethyl-4-oxo-4,5,6,7-tetrahydro-1H-indol-1-yl)benzamide] | +++ |
| COc1cc(Nc2cc(-n3nc(C(F)(F)F)c4c3CC(C)(C)CC4=O)ccc2C(N)=O)cc(OC)c1OC [Compound 107, 4-[6,6-dimethyl-4-oxo-3-(trifluoromethyl)-4,5,6,7-tetrahydro-1H-indazol-1-yl]-2-[(3,4,5-trimethoxyphenyl)amino]benzamide] | ++ |
| Cc1cn(-c2ccc(C(N)=O)c(NC3CCN(C(=O)CN(C)C)CC3)c2)c2c1C(=O)CC(C)(C)C2 [Compound 109, 2-{[1-(N,N-dimethylglycyl)piperidin-4-yl]amino}-4-(3,6,6-trimethyl-4-oxo-4,5,6,7-tetrahydro-1H-indol-1-yl)benzamide] | ++ |
| CC(=O)OCC(=O)NCCNc1cc(-n2cc(C)c3c2CC(C)(C)CC3=O)ccc1C(N)=O [Compound 111, 2-[(2-{[2-(aminocarbonyl)-5-(3,6,6-trimethyl-4-oxo-4,5,6,7-tetrahydro-1H-indol-1-yl)phenyl]amino}ethyl)amino]-2-oxoethyl acetate] | +++ |
| Cc1nn(-c2ccc(C(N)=O)c(Nc3ccc(=O)[nH]c3)c2)c2c1C(=O)CC(C)(C)C2 [Compound 115, 2-[(6-oxo-1,6-dihydropyridin-3-yl)amino]-4-(3,6,6-trimethyl-4-oxo-4,5,6,7-tetrahydro-1H-indazol-1-yl)benzamide] | +++ |
| Cc1nn(-c2ccc(C(N)=O)c(NC3CN(S(C)(=O)=O)C3)c2)c2c1C(=O)CC(C)(C)C2 [Compound 131, 2-{[1-(methylsulfonyl)azetidin-3-yl]amino}-4-(3,6,6-trimethyl-4-oxo-4,5,6,7-tetrahydro-1H-indazol-1-yl)benzamide] | ++ |
| Cc1nn(-c2ccc(C(N)=O)c(NCCCS(C)(=O)=O)c2)c2c1C(=O)CC(C)(C)C2 [Compound 132, 2-{[3-(methylsulfonyl)propyl]amino}-4-(3,6,6-trimethyl-4-oxo-4,5,6,7-tetrahydro-1H-indazol-1-yl)benzamide] | +++ |
| C=CCCc1nn(-c2ccc(C(N)=O)cc2)c2c1C(=O)CC(C)(C)C2 [Compound 134, 4-(3-but-3-en-1-yl-6,6-dimethyl-4-oxo-4,5,6,7-tetrahydro-1H-indazol-1-yl)benzamide] | ++ |
| Cc1nn(-c2ccc(C(N)=O)c(N[C@H]3CCN(S(C)(=O)=O)C3)c2)c2c1C(=O)CC(C)(C)C2 [Compound 135, 2-{[(3S)-1-(methylsulfonyl)pyrrolidin-3-yl]amino}-4-(3,6,6-trimethyl-4-oxo-4,5,6,7-tetrahydro-1H-indazol-1-yl)benzamide] | +++ |
